# In PubChem BioAssay AID1845200 (Molecular Pharmacology Branch, DTP, NCI, 2023):
# Test system: ASPS-1 complex tumor spheroids, viability
# Experiment: Anticancer human tumor ASPS-1 cell line growth inhibition;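 note: spheroids exposed to agents for 7 days after 3 days of growth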;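 for viability, T/C: 100% = DMSO vehicle treated spheroids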
# Details: for IC50: curve of first compound; for viability, T/C: stronger effect = lower value
# How it was run: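 Single agents and combinations were tested on spheroids built from tumor cells plus HUVEC and hMSC, at half-log dilutions starting at or near clinical Cmax, else 10 microM; final DMSO 0.25% (v/v).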
# [1] = second compound 0.003 µM, first compound 0.0316 µM
# [2] = second compound 0.003 µM, first compound 0.1 µM
# [3] = second compound 0.003 µM, first compound 0.316 µM
# [4] = second compound 0.003 µM, first compound 1 µM
# [5] = second compound 0.003 µM, first compound 3.16 µM
# [6] = second compound 0.003 µM, first compound 10 µM
# [7] = second compound 0.00949 µM, first compound 0.0316 µM
# [8] = second compound 0.00949 µM, first compound 0.1 µM
# [9] = second compound 0.00949 µM, first compound 0.316 µM
# [10] = second compound 0.00949 µM, first compound 1 µM
# [11] = second compound 0.00949 µM, first compound 3.16 µM
# [12] = second compound 0.00949 µM, first compound 10 µM
# [13] = second compound 0.03 µM, first compound 0.0316 µM
# [14] = second compound 0.03 µM, first compound 0.1 µM
# [15] = second compound 0.03 µM, first compound 0.316 µM
# [16] = second compound 0.03 µM, first compound 1 µM
# [17] = second compound 0.03 µM, first compound 3.16 µM
# [18] = second compound 0.03 µM, first compound 10 µM
# [19] = second compound 0.0949 µM, first compound 0.0316 µM
# [20] = second compound 0.0949 µM, first compound 0.1 µM
# [21] = second compound 0.0949 µM, first compound 0.316 µM
# [22] = second compound 0.0949 µM, first compound 1 µM
# [23] = second compound 0.0949 µM, first compound 3.16 µM
# [24] = second compound 0.0949 µM, first compound 10 µM
# [25] = second compound 0.3 µM, first compound 0.0316 µM
# [26] = second compound 0.3 µM, first compound 0.1 µM
# [27] = second compound 0.3 µM, first compound 0.316 µM
# [28] = second compound 0.3 µM, first compound 1 µM
# [29] = second compound 0.3 µM, first compound 3.16 µM
# [30] = second compound 0.3 µM, first compound 10 µM
Structure (SMILES),IC50 (second compound 0.003 µM) [µM],IC50 (second compound 0.00949 µM) [µM],IC50 (second compound 0.03 µM) [µM],IC50 (second compound 0.0949 µM) [µM],IC50 (second compound 0.3 µM) [µM],"viability, T/C [1] [%]","viability, T/C [2] [%]","viability, T/C [3] [%]","viability, T/C [4] [%]","viability, T/C [5] [%]","viability, T/C [6] [%]","viability, T/C [7] [%]","viability, T/C [8] [%]","viability, T/C [9] [%]","viability, T/C [10] [%]","viability, T/C [11] [%]","viability, T/C [12] [%]","viability, T/C [13] [%]","viability, T/C [14] [%]","viability, T/C [15] [%]",other results
CC(C)n1c(=O)n(C)c2cnc3cc(F)c(-c4ccc(OCCCN5CCCCC5)nc4)cc3c21 + CC[C@@]1(O)C(=O)OCc2c1cc1n(c2=O)Cc2cc3c(CN(C)C)c(O)ccc3nc2-1,6.68,5.2,0.184,0.161,0.188,99.3,99.6,108,98,82.9,32.4,82.9,69.2,71,65.6,67,30.6,61.1,53,48,"viability, T/C [16]: 31.3%; viability, T/C [17]: 33.2%; viability, T/C [18]: 27.1%; viability, T/C [19]: 64.3%; viability, T/C [20]: 54.7%; viability, T/C [21]: 41.8%; viability, T/C [22]: 21.9%; viability, T/C [23]: 22.4%; viability, T/C [24]: 26.1%; viability, T/C [25]: 62.9%; viability, T/C [26]: 60.6%; viability, T/C [27]: 40.9%; viability, T/C [28]: 22%; viability, T/C [29]: 20.9%; viability, T/C [30]: 24.2%"
CC1COCCN1c1cc(-c2ccnn2C)c2ccnc(-c3ccn[nH]3)c2n1 (stereo not given) + CC[C@@]1(O)C(=O)OCc2c1cc1n(c2=O)Cc2cc3c(CN(C)C)c(O)ccc3nc2-1,0.224,0.0608,< 0.0316,< 0.0316,< 0.0316,73.9,59.1,46.2,44.5,47.8,43.5,56.9,48.7,39.9,40.1,46.8,42.3,38.7,35.1,35.8,"viability, T/C [16]: 39.6%; viability, T/C [17]: 42.1%; viability, T/C [18]: 42.5%; viability, T/C [19]: 26.7%; viability, T/C [20]: 26.5%; viability, T/C [21]: 28.7%; viability, T/C [22]: 34.1%; viability, T/C [23]: 41.9%; viability, T/C [24]: 36.4%; viability, T/C [25]: 23.3%; viability, T/C [26]: 23.2%; viability, T/C [27]: 23.5%; viability, T/C [28]: 33.8%; viability, T/C [29]: 44.6%; viability, T/C [30]: 38.6%"
COc1cc(C)[nH]c(=O)c1CN1CCc2c(Cl)cc(C(OC)C3COC3)c(Cl)c2C1=O (stereo not given) + CC[C@@]1(O)C(=O)OCc2c1cc1n(c2=O)Cc2cc3c(CN(C)C)c(O)ccc3nc2-1,> 10,> 10,> 10,> 10,> 10,107,111,99.3,98.7,99.9,101,112,110,107,98.9,98.9,98.8,84.6,89.1,88.8,"viability, T/C [16]: 87.2%; viability, T/C [17]: 91.3%; viability, T/C [18]: 82.8%; viability, T/C [19]: 61.8%; viability, T/C [20]: 61.7%; viability, T/C [21]: 60.2%; viability, T/C [22]: 62.7%; viability, T/C [23]: 58.4%; viability, T/C [24]: 59.3%; viability, T/C [25]: 69.7%; viability, T/C [26]: 64.8%; viability, T/C [27]: 69.2%; viability, T/C [28]: 64.9%; viability, T/C [29]: 64.2%; viability, T/C [30]: 65.7%"
COc1ccc([C@@H](O)c2cc(-c3ncnc4cc(N5CCOCC5)ccc34)c(F)cc2Cl)nn1 + CC[C@@]1(O)C(=O)OCc2c1cc1n(c2=O)Cc2cc3c(CN(C)C)c(O)ccc3nc2-1,8.87,6.69,3.02,0.33,0.214,110,106,101,98.1,80.3,46.1,104,104,101,90.2,66.6,41.1,82,87.9,82.8,"viability, T/C [16]: 73.8%; viability, T/C [17]: 49.1%; viability, T/C [18]: 31.9%; viability, T/C [19]: 56.1%; viability, T/C [20]: 54.7%; viability, T/C [21]: 50.6%; viability, T/C [22]: 31.4%; viability, T/C [23]: 22.7%; viability, T/C [24]: 26.1%; viability, T/C [25]: 62.5%; viability, T/C [26]: 58.4%; viability, T/C [27]: 45.7%; viability, T/C [28]: 32.4%; viability, T/C [29]: 23.9%; viability, T/C [30]: 16.4%"
[2H]c1nc(C)nc([2H])c1-c1cc(NC[C@@H](C)c2cccc3c(C(=O)NC)ccnc23)ncn1 + CC[C@@]1(O)C(=O)OCc2c1cc1n(c2=O)Cc2cc3c(CN(C)C)c(O)ccc3nc2-1,> 10,> 10,> 10,> 10,> 10,111,113,110,107,107,104,112,106,107,108,97.8,100,103,101,97.8,"viability, T/C [16]: 91.3%; viability, T/C [17]: 94.6%; viability, T/C [18]: 97.4%; viability, T/C [19]: 67.8%; viability, T/C [20]: 75.8%; viability, T/C [21]: 67.8%; viability, T/C [22]: 66.2%; viability, T/C [23]: 68%; viability, T/C [24]: 68.4%; viability, T/C [25]: 80.2%; viability, T/C [26]: 72.8%; viability, T/C [27]: 77.1%; viability, T/C [28]: 71.4%; viability, T/C [29]: 74.8%; viability, T/C [30]: 66.6%"
